SMILES strings stand for the structures. Read-outs that look alike come from different tables or passages of the source.

We go through 14 compounds from patent US20140057953A1, “BIARYL DERIVATIVES AS SELECTIVE 17BETA-HYDROXYSTEROID DEHYDROGENASE TYPE 2 INHIBITORS” (priority 2011, published 2014).

The target in assay [1] is T1, 17β-HSD2 (Homo sapiens, UniProt P37059).
T1 sequence (P37059 1-387): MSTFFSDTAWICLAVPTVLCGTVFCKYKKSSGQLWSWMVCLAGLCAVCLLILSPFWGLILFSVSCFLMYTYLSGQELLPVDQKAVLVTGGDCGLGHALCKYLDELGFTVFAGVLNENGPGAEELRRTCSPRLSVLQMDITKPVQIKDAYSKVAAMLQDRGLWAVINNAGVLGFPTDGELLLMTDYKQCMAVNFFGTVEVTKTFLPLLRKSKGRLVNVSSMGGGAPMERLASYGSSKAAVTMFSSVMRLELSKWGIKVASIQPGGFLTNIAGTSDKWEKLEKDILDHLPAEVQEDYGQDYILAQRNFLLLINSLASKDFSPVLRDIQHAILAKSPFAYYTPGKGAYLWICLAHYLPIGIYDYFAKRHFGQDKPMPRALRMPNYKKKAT
To be noted: cited from earlier work.

The next assay addresses T2, 17β-HSD1 (Homo sapiens, UniProt P14061).
T2 construct: For the partial purification of 17β-HSD1, the cytosolic fraction was precipitated with ammonium sulfate; from tissue; host or cells: human placenta, cytosolic fraction
T2 sequence (P14061 1-328): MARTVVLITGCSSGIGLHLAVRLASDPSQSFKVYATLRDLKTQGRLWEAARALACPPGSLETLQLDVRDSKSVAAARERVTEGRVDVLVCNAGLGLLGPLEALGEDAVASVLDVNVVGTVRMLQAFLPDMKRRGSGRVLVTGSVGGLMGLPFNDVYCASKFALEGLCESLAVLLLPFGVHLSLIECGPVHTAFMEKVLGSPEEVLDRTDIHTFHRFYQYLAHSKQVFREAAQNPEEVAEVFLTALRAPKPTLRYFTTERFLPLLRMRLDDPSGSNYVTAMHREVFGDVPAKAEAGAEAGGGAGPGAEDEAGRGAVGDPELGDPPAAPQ
The assay can be described thus: Inhibition of 17β-HSD1 in cell-free assay. To be noted: human placenta, cytosolic fraction, substrate E1 500 nM, cofactor NADH 500 μM. The format is biochemical. The procedure: (§1) Fresh human placenta was homogenized. Cytosolic and microsomal fractions were separated by centrifugation at 1000 g, 10000 g and 150000 g. 17β-HSD2 was obtained directly from the microsomal fraction. For the partial purification of 17β-HSD1, the cytosolic fraction was precipitated with ammonium sulfate. Aliquots containing 17β-HSD1 or 17β-HSD2 were stored frozen.
The 17β-HSD1 inhibition assay was performed similarly to the 17β-HSD2 test. The cytosolic fraction was incubated with NADH [500 μM], test compound and a mixture of unlabelled- and [^3H]-E1 (final concentration: 500 nM, 0.15 μCi) for 10 min at 37° C. Further treatment of the samples and HPLC separation was carried out as mentioned above for 17β-HSD2.

The target of assay [2] is T1, 17β-HSD2. Put plainly: Inhibition of 17β-HSD2 in MDA-MB-231 cellular assay. Particulars: MDA-MB-231 cells, substrate [3H]-E2 200 nM. In kind it is cell-based. On the procedure:
[^3H-E2] (200 nM) is used as substrate, and is incubated with the inhibitor for 3.5 h at 37° C. After ether extraction, substrate and product are separated by HPLC and detected with a radioflow detector following the method previously described.

In another assay the target is T3, ERα (Homo sapiens, UniProt P03372).
T3 sequence (P03372 1-595): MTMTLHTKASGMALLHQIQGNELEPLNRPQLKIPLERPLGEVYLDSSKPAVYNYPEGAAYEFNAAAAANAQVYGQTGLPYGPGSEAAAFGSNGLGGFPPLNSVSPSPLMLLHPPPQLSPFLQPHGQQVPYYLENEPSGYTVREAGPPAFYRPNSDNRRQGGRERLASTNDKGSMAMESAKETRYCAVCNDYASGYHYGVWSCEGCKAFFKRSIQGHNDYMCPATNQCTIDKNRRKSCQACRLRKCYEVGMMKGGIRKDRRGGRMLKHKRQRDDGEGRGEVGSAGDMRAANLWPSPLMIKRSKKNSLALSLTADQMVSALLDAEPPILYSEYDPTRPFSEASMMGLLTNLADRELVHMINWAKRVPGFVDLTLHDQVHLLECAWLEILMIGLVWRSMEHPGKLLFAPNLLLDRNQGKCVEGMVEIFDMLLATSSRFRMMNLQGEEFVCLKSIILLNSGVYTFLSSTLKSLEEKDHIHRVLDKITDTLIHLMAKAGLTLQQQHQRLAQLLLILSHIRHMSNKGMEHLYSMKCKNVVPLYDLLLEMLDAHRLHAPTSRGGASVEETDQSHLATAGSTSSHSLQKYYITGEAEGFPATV
Put plainly: ER affinity assay (ERα), [3H]-E2 displacement. Particulars: Relative Binding Affinity, E2 = 100%; recombinant human protein. On the procedure:
(§2) The binding affinity of selected compounds to the ERα and ERβ was determined according to Zimmermann et al. (Zimmermann, J. et al., 3. Steroid Biochem. Mol. Biol., 94:57-66 (2005)) using recombinant human proteins. Briefly, 0.25 μM of ERα or ERβ, respectively, were incubated with [^3H]-E2 (10 nM) and test compound for 1 h at room temperature. The potential inhibitors were dissolved in DMSO (5% final concentration). Evaluation of non-specific-binding was performed with diethylstilbestrol (10 μM). After incubation, ligand-receptor complexes were selectively bound to hydroxyapatite (5 g/60 ml TE-buffer). The formed complex was separated, washed and resuspended in ethanol. For radiodetection, scintillator cocktail (Quickszint 212, Zinsser Analytic, Frankfurt) was added and the samples were measured in a liquid scintillation counter (Rack Beta Primo 1209, Wallac, Turku). […] The compound concentration to displace 50% of the receptor bound [^3H]-E2 were determined. Unlabelled E2 was used as a reference. For determination of the relative binding affinity (RBA) the ratio was calculated according to the following equation: […]
(§3) After the assay was established and validated a modification was made to increase throughput. […] Results were reported as RBA ranges.

The next assay has as its target ERβ (Homo sapiens, UniProt Q92731). Put plainly: ER affinity assay (ERβ), [3H]-E2 displacement. Particulars: Relative Binding Affinity, E2 = 100%; recombinant human protein. On the procedure: as §2, §3
For assay [3], the target named is T1, 17β-HSD2. The assay can be described thus: Inhibition of 17β-HSD2 in cell-free assay. Details: 17β-HSD2 was obtained directly from the microsomal fraction; from tissue; host or cells: human placenta, microsomal fraction. To be noted: human placenta, microsomal fraction, substrate E2 500 nM, cofactor NAD+ 1500 μM. The format is biochemical. The procedure: as §1
Inhibitor stock solutions were prepared in DMSO. Final concentration of DMSO was adjusted to 1% in all samples. The enzymatic reaction was started by addition of a mixture of unlabelled- and [^3H]-E2 (final concentration: 500 nM, 0.11 μCi). After 20 min at 37° C., the incubation was stopped with HgCl2 and the mixture was extracted with ether. After evaporation, the steroids were dissolved in acetonitrile. E1 and E2 were separated using acetonitrile/water (45:55) as mobile phase in a C18 RP chromatography column (Nucleodur C18, 3 μm, Macherey-Nagel, Duren) connected to a HPLC-system (Agilent 1100 Series, Agilent Technologies, Waldbronn). Detection and quantification of the steroids were performed using a radioflow detector (Berthold Technologies, Bad Wildbad). The conversion rate was calculated according to the following equation: […]

The subject of another assay is osteoporosis model. Particulars: monkeys; cited from earlier work.

Sequence of ERβ (Q92731 whole entry): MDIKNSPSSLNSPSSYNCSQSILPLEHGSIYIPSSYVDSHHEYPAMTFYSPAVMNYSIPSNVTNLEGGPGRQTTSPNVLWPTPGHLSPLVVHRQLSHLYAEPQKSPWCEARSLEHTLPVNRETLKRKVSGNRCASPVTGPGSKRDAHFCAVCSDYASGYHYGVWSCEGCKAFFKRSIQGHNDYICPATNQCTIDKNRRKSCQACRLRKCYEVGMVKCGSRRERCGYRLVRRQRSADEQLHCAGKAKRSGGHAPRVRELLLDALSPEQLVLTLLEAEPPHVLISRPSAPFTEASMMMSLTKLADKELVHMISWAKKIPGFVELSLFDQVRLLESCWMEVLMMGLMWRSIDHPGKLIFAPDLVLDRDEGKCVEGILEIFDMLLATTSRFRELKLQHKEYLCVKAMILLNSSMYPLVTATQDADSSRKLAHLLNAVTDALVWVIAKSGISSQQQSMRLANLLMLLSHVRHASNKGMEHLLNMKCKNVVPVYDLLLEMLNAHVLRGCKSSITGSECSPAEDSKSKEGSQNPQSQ

On to `C[C@]12CCC3c4ccc(O)cc4CCC3C1CC[C@@]21CCCC(=O)O1` (stereo partly shown) [C17-spirolactone 1], for which the “inhibitory activity (17β-HSD2)” value at 17β-HSD2 [1] (at 100 nM) is on record as 40%; at 17β-HSD2 [1] (at 1 μM) it was 70%.
For the compound `CN(Cc1cccc(O)c1)C(=O)c1ccc(-c2ccccc2O)s1` [compound 28, N-(3-Hydroxybenzyl)-5-(2-hydroxyphenyl)-N-methylthiophene-2-carboxamide], the IC50 amounted to 2980 nM against 17β-HSD1 and 148 nM against 17β-HSD2 [3]. This compound also came in with an inhibition at 1 µM against 17β-HSD2 [2] of 75%. The “ERα RBA (%)” value at ERα is under 0.1%. In addition, the “ERβ RBA (%)” value at ERβ was under 0.1%.
Regarding `COc1ccc(-c2ccc(C(=O)N(C)Cc3cccc(O)c3)s2)cc1` [compound 39, N-(3-Hydroxybenzyl)-5-(4-methoxyphenyl)-N-methylthiophene-2-carboxamide], the results for the IC50 on 17β-HSD1 and against 17β-HSD2 [3] were over 40000 nM and 161 nM, respectively. Moreover, the inhibition at 1 µM on 17β-HSD2 [2] is 88%. Also, the “ERα RBA (%)” value on ERα is recorded as under 0.1%. In addition, the “ERβ RBA (%)” value at ERβ was under 0.1%.
As for `CN(Cc1cccc(O)c1)C(=O)c1ccc(-c2cccc(N(C)C)c2)s1` [compound 40, 5-(3-(Dimethylamino)phenyl)-N-(3-hydroxybenzyl)-N-methylthiophene-2-carboxamide], the IC50 at 17β-HSD1 was found to be 18600 nM; on 17β-HSD2 [3], 246 nM. In addition, the “ERα RBA (%)” value on ERα is under 0.1%. For the same compound, the “ERβ RBA (%)” value at ERβ is on record as under 0.1%.
Consider `COc1cccc(-c2ccc(C(=O)N(C)Cc3cccc(O)c3)s2)c1F` [compound 43, 5-(2-Fluoro-3-methoxyphenyl)-N-(3-hydroxybenzyl)-N-methylthiophene-2-carboxamide], for which the figures for the IC50 against 17β-HSD1 and at 17β-HSD2 [3] were 4450 nM and 61 nM, respectively. Further, the “ERα RBA (%)” value on ERα is listed as under 0.1%. Besides, the “ERβ RBA (%)” value at ERβ was under 0.1%.
Turning to `Cc1cccc(-c2ccc(C(=O)N(C)Cc3cccc(O)c3)s2)c1` [compound 46, N-(3-Hydroxybenzyl)-N-methyl-5-m-tolylthiophene-2-carboxamide], the IC50 at 17β-HSD1 was determined as 10600 nM; against 17β-HSD2 [3], 163 nM. The “ERα RBA (%)” value at ERα is under 0.1%. Besides, the “ERβ RBA (%)” value on ERβ is under 0.1%.
As to `COc1cccc(N(C)C(=O)c2ccc(-c3ccccc3)s2)c1` [compound 51, N-(3-Methoxyphenyl)-N-methyl-5-phenylthiophene-2-carboxamide], the IC50 amounted to 4340 nM at 17β-HSD1 and 207 nM at 17β-HSD2 [3]. In addition, the inhibition at 1 µM on 17β-HSD2 [2] stood at 67%. The “ERα RBA (%)” value at ERα is under 0.1%. Besides, on ERβ, the “ERβ RBA (%)” value is under 0.1%.
`COc1cccc(N(C)C(=O)c2ccc(-c3cccc(OC)c3F)s2)c1` [compound 56, 5-(2-Fluoro-3-methoxyphenyl)-N-(3-methoxyphenyl)-N-methylthiophene-2-carboxamide] gave an inhibition at 1 µM against 17β-HSD2 [2] of 70%. Also, at ERα, the “ERα RBA (%)” value is on record as under 0.1%. On ERβ, the “ERβ RBA (%)” value was under 0.1%. On 17β-HSD2 [3], this compound gave an IC50 of 62 nM.
On to `COc1cccc(N(C)C(=O)c2ccc(-c3cccc(N(C)C)c3)s2)c1` [compound 58, 5-(3-(Dimethylamino)phenyl)-N-(3-methoxyphenyl)-N-methylthiophene-2-carboxamide], for which the IC50 against 17β-HSD1 was 10600 nM; against 17β-HSD2 [3], 169 nM. The “ERα RBA (%)” value on ERα is under 0.1%. Further, on ERβ, the “ERβ RBA (%)” value was under 0.1%.
For `COc1cccc(N(C)C(=O)c2ccc(-c3ccc(OC)c(F)c3)s2)c1` [compound 61, 5-(3-Fluoro-4-methoxyphenyl)-N-(3-methoxyphenyl)-N-methylthiophene-2-carboxamide], the results for the IC50 on 17β-HSD1 and on 17β-HSD2 [3] were over 40000 nM and 242 nM, respectively. In addition, at ERα, the “ERα RBA (%)” value is on record as under 0.1%. Moreover, on ERβ, the “ERβ RBA (%)” value is under 0.1%.
As to `COc1cccc(-c2ccc(C(=O)N(C)c3cccc(C)c3)s2)c1` [compound 70, 5-(3-Methoxyphenyl)-N-methyl-N-m-tolylthiophene-2-carboxamide], the IC50 at 17β-HSD1 worked out at 11500 nM; against 17β-HSD2 [3], 207 nM. In addition, at 17β-HSD2 [2], the inhibition at 1 µM is 50%. Besides, the “ERα RBA (%)” value on ERα is on record as under 0.1%. Also, the “ERβ RBA (%)” value on ERβ is under 0.1%.
In the case of `Cc1cccc(N(C)C(=O)c2ccc(-c3cccc(O)c3)s2)c1` [compound 71, 5-(3-Hydroxyphenyl)-N-methyl-N-m-tolylthiophene-2-carboxamide], the IC50 against 17β-HSD1 came out at 6800 nM; against 17β-HSD2 [3] it was 644 nM. Moreover, the “ERα RBA (%)” value at ERα is recorded as under 0.1%. Also, the “ERβ RBA (%)” value at ERβ was under 0.1%.
`COc1cccc(-c2ccc(C(=O)N(C)c3cccc(C(F)(F)F)c3)s2)c1` [compound 75, 5-(3-Methoxyphenyl)-N-methyl-N-(3-(trifluoromethyl)phenyl)thiophene-2-carboxamide]: the IC50 at 17β-HSD1 was found to be 12300 nM; at 17β-HSD2 [3], 721 nM. For the same compound, the “ERα RBA (%)” value on ERα is listed as under 0.1%. Further, the “ERβ RBA (%)” value at ERβ is under 0.1%.
As to `CN1C(=O)C[C@H](c2ccccc2)[C@@H]1[C@H](O)c1ccc(-c2cccnc2)s1` [inhibitor 3], in the assay on osteoporosis model, the “effect on local level of E2 and T in bones” value is “helps to maintain a sufficient local level of E2 and T in bones”.
